Reference: patent US11046699B2, “Pyrazolo-pyrimidin-amino-cycloalkyl compounds and their therapeutic uses” (RAPT THERAPEUTICS, INC., priority 2018, dated 2021)

biological target: GCN2 (Homo sapiens, UniProt Q9P2K8); experiment: GCN2 enzymatic endpoint assay: phosphorylation of GFP-eIF2α measured by TR-FRET (Lanthascreen); type: biochemical; conditions: GCN2 biochemical IC50; 4 nM GCN2, 2 μM ATP, 80 nM GFP-eIF2α, 90 min RT; read-out: GCN2 activity
Procedure, shortened: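 Endpoint GCN2 reaction with low ATP (2 μM) and 80 nM GFP-eIF2α, room temperature, 90 minutes. Detection mix with EDTA and Tb-labelled antibody; 520 nm/495 nm emission ratio reported.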

GCN2, sequence (Q9P2K8 whole entry): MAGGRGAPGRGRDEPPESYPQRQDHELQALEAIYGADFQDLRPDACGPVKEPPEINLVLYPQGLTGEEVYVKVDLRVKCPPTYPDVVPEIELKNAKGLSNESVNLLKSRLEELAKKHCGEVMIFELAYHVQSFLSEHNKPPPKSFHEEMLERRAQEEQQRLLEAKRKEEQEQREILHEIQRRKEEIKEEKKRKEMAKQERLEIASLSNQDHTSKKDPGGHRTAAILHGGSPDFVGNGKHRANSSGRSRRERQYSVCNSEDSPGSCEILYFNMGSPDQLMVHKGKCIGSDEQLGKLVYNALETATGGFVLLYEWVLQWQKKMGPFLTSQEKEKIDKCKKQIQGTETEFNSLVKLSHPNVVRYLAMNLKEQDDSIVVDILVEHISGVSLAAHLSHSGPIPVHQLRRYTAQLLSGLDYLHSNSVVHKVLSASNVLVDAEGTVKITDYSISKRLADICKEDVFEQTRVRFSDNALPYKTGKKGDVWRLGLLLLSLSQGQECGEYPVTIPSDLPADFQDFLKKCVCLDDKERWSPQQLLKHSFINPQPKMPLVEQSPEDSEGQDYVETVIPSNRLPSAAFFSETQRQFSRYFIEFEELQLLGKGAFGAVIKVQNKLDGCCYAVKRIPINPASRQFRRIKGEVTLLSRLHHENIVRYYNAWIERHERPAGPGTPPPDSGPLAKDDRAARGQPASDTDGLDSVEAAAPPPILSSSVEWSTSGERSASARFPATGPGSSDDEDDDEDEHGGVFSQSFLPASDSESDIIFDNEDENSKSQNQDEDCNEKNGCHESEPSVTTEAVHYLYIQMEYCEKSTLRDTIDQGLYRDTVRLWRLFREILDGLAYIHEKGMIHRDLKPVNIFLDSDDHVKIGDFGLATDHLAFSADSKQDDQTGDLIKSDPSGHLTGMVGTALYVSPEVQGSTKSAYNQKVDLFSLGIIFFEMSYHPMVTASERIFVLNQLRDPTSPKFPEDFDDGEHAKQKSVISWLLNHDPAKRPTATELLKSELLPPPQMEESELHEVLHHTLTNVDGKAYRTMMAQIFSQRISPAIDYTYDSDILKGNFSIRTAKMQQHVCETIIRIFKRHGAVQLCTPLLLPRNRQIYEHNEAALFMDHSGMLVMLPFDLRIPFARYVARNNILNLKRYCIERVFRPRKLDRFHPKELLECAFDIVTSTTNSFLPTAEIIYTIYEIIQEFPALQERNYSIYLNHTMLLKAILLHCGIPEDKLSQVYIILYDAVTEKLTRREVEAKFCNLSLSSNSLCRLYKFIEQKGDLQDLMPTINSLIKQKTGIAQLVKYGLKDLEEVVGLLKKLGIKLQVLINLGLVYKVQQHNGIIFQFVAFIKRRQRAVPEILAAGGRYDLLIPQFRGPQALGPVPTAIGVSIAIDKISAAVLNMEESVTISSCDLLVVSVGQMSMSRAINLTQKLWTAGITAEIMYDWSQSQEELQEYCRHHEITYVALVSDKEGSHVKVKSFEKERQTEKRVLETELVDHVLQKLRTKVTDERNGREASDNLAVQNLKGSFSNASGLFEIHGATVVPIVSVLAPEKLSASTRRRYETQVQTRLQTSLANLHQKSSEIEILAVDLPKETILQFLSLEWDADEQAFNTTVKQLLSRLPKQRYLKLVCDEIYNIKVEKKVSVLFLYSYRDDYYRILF

IC50 [µM] | Compound
0.025 to 0.2 | CNC(=O)C1(C)CC[C@@H](Nc2ncc3c(Br)nn(-c4ccc(-c5cccnc5)c(C#N)c4)c3n2)C1 (stereo partly drawn) [Example 44, (3R)-3-((3-bromo-1-(3-cyano-4-(pyridin-3-yl)phenyl)-1H-pyrazolo[3,4-d]pyrimidin-6-yl)amino)-N,1-dimethylcyclopentane-1-carboxamide; 2,2,2-trifluoroacetic acid]

same assay, conditions: tested as described in Example 77; compound and/or hydrochloride, dihydrochloride or trifluoroacetic acid salt; read-out: IC 50 Activity

IC50 [µM] | Compound
< 0.025 | CNC(=O)[C@@H]1CC[C@@H](Nc2ncc3c(Br)nn(-c4cc(C#N)c5ncccc5c4)c3n2)C1 [(1R,3R)-3-((3-bromo-1-(8-cyanoquinolin-6-yl)-1H-pyrazolo[3,4-d]pyrimidin-6-yl)amino)-N-methylcyclopentane-1-carboxamide]
0.025 to 0.2 | CNC(=O)[C@]1(C)CC[C@@H](Nc2ncc3c(Br)nn(-c4ccc(C#N)c(OCC5(F)CNC5)c4)c3n2)C1 [(1R,3R)-3-[[3-bromo-1-[4-cyano-3-[(3-fluoroazetidin-3-yl)methoxy]phenyl]pyrazolo[3,4-d]pyrimidin-6-yl]amino]-N,1-dimethyl-cyclopentanecarboxamide]
0.025 to 0.2 | CNC(=O)[C@]1(C)CCC(Nc2ncc3c(Br)nn(-c4cnc(-c5nnc(C)s5)c(F)c4)c3n2)C1 (stereo partly drawn) [(1R)-3-[[3-bromo-1-[5-fluoro-6-(5-methyl-1,3,4-thiadiazol-2-yl)-3-pyridyl]pyrazolo [3,4-d]pyrimidin-6-yl]amino]-N,1-dimethyl-cyclopentanecarboxamide]
0.025 to 0.2 | O=C(N[C@@H]1CCNC[C@H]1F)[C@@H]1CC[C@@H](Nc2ncc3c(Br)nn(-c4cc(F)c5ncccc5c4)c3n2)C1 [(1R,3R)-3-((3-bromo-1-(8-fluoroquinolin-6-yl)-1H-pyrazolo[3,4-d]pyrimidin-6-yl)amino)-N-((3R,4R)-3-fluoropiperidin-4-yl)cyclo-pentane-1-carboxamide]

Continued, compound first:

Compound | IC50 [µM]
CNC(=O)[C@]1(C)CC[C@@H](Nc2ncc3c(Br)nn(-c4ccc(-c5ncco5)c([C@H](C)CN)c4)c3n2)C1 [(1R,3R)-3-[[1-[3-[(1S)-2-amino-1-methyl-ethyl]-4-oxazol-2-yl-phenyl]-3-bromo-pyrazolo[3,4-d]pyrimidin-6-yl]amino]-N,1-dimethyl-cyclopentanecarboxamide] | 0.025 to 0.2
CNC(=O)[C@]1(C)CC[C@@H](Nc2ncc3c(Br)nn(-c4ccc(-c5ncco5)c(OCCO)c4)c3n2)C1 [(1R,3R)-3-[[3-bromo-1-[3-(2-hydroxy-ethoxy)-4-oxazol-2-yl-phenyl]pyrazolo [3,4-d]pyrimidin-6-yl]amino]-N,1-dimethyl-cyclopentanecarboxamide] | < 0.025
Cc1nnc(-c2ccc(-n3nc(Br)c4cnc(N[C@@H]5CC[C@@](C)(C(=O)N6CCOCC6)C5)nc43)cc2)s1 [[(1R,3R)-3-[[3-bromo-1-[4-(5-methyl-1,3,4-thiadiazol-2-yl)phenyl]pyrazolo[3,4-d]pyrimidin-6-yl]amino]-1-methyl-cyclopentyl]-morpholino-methanone] | 0.025 to 0.2
CNC(=O)[C@]1(C)CC[C@@H](Nc2ncc3c(Br)nn(-c4ccc5c(c4)CN(C=O)CC5)c3n2)C1 [(1R,3R)-3-[[3-bromo-1-(2-formyl-3,4-dihydro-1H-isoquinolin-7-yl)pyrazolo [3,4-d]pyrimidin-6-yl]amino]-N,1-dimethyl-cyclopentanecarboxamide] | 0.025 to 0.2
CNC(=O)[C@]1(C)CC[C@@H](Nc2ncc3c(Br)nn(-c4ccc5c(c4)OCC(=O)N5CC(F)(F)F)c3n2)C1 [(1R,3R)-3-[[3-bromo-1-[3-oxo-4-(2,2,2-trifluoroethyl)-1,4-benzoxazin-7-yl]pyrazolo [3,4-d]pyrimidin-6-yl]amino]-N,1-dimethyl-cyclopentanecarboxamide] | 0.025 to 0.2
Cc1nnc(-c2ccc(-n3nc(Br)c4cnc(NC5CCOC5)nc43)cc2)s1 (centres unmarked) [3-bromo-1-[4-(5-methyl-1,3,4-thiadiazol-2-yl)phenyl]-N-tetrahydrofuran-3-yl-pyrazolo [3,4-d]pyrimidin-6-amine] | 0.025 to 0.2
